Active and inactive are the calls of the source.
Columns and labels:
Escherichia coli = assay: microbe, parasite or virus in culture
[1] = target: T1, Apoptotic protease-activating factor 1 (Homo sapiens, UniProt O14727); type: functional
T1 sequence (O14727 whole entry): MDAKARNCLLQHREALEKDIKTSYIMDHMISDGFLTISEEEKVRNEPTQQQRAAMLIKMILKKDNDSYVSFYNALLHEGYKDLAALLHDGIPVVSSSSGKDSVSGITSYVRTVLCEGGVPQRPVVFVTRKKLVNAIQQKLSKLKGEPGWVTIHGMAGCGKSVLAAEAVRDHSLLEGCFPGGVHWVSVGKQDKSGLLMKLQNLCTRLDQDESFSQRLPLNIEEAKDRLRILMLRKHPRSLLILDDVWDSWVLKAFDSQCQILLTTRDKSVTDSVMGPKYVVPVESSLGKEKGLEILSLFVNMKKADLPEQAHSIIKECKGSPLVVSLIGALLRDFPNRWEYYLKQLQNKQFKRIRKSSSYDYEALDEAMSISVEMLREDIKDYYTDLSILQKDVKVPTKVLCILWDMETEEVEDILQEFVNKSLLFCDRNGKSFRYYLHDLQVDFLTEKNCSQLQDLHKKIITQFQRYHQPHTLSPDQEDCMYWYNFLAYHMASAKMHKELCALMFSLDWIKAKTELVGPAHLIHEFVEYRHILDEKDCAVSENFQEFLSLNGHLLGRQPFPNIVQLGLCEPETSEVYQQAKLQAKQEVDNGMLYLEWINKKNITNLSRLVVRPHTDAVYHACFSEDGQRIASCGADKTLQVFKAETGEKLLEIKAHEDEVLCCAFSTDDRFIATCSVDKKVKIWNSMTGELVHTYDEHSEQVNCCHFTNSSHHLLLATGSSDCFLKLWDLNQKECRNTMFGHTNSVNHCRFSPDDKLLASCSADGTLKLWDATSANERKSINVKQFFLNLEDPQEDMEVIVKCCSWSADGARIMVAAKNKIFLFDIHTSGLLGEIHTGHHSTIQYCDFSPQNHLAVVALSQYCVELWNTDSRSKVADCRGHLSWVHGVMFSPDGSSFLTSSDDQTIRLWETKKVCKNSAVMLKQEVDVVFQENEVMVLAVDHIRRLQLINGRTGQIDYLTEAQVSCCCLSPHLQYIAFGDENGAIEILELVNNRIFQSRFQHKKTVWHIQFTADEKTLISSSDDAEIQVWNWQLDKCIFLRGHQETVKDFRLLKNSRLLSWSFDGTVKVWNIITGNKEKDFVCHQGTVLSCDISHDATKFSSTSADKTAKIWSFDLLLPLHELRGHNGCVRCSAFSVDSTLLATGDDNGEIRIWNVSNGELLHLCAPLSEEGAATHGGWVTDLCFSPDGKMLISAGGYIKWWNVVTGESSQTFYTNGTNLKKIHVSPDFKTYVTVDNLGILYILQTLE

[2] = target: T2, Heat shock factor protein 1 (Mus musculus, UniProt P38532); assay: HSF1 potentiators in luciferase reporter cells, confirmation, cell-based, NIH3T3, luminescence, dose retest (AID 435004); type: functional;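 also: stress induced by proteasome inhibitor MG132 added 30 min after compound; luciferase reporter driven by HSF1 response element in NIH3T3 cells; actives raise luminescence as potentiators of the MG132 stress response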
T2 sequence (P38532 whole entry): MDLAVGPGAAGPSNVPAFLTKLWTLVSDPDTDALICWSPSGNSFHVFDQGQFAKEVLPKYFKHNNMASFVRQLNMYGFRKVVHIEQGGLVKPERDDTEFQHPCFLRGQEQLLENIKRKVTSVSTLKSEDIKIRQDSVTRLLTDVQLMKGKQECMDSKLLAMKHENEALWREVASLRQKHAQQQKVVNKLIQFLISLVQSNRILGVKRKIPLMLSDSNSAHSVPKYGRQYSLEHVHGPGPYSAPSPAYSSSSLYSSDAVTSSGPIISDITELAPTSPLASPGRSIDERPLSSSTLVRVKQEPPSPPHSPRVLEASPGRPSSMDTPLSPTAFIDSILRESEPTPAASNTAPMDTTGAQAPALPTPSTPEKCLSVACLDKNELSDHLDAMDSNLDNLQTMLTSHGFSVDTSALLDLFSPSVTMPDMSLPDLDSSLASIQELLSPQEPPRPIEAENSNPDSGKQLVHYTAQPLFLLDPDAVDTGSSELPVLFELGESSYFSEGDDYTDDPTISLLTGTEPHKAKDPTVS

[3] = target: T3, DNA repair and recombination protein RAD54-like (Homo sapiens, UniProt Q92698); assay: inhibitors of human RAD54 branch migration, confirmation, biochemical, fluorescence, cherry-picked samples, dose series (AID 651657); type: functional
T3 sequence (Q92698 whole entry): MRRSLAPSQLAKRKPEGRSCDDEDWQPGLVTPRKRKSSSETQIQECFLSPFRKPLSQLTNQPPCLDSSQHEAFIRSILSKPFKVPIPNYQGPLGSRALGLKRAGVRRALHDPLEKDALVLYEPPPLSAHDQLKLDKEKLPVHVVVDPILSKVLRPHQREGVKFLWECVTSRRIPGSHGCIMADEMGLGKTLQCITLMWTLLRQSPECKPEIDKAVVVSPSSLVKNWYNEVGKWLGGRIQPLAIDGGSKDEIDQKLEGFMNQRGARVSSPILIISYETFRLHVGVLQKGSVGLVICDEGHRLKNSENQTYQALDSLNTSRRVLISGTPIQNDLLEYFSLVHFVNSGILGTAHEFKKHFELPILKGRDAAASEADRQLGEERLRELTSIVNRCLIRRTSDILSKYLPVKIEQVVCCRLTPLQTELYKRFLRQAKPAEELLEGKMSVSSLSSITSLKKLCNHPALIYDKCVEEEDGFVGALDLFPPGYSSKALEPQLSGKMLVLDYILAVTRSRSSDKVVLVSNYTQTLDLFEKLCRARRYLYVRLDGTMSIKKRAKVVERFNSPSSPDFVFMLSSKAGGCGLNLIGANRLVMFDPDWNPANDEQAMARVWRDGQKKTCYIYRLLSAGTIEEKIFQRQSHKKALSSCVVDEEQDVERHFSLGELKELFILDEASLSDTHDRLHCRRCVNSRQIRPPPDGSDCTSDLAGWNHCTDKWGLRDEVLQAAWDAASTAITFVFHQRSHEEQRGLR

[4] = C. albicans growth with fluconazole, confirmation, fluorescence, retest (AID 2467); type: functional, cell-based
Caspase-3 = target: T4, Caspase-3 (Homo sapiens, UniProt P42574); type: functional;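 also: Dose-response selectivity test against caspase-3 for candidate inhibitors of sentrin-specific proteases (SENPs)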
T4 sequence (P42574 whole entry): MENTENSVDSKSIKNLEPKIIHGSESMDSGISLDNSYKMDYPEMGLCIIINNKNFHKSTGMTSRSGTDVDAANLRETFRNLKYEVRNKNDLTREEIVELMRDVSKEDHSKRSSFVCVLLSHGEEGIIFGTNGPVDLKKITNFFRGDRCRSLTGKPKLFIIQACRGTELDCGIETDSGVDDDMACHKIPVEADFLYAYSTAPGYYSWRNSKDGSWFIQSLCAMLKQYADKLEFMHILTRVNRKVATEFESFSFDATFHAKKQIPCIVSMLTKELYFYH

[5] = target: T5, Sentrin-specific protease 6 (Homo sapiens, UniProt Q9GZR1); type: functional;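 also: Luminescence-based dose-response confirmatory assay of SENP6 inhibition, following up an ultra-high-throughput screen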
T5 sequence (Q9GZR1 whole entry): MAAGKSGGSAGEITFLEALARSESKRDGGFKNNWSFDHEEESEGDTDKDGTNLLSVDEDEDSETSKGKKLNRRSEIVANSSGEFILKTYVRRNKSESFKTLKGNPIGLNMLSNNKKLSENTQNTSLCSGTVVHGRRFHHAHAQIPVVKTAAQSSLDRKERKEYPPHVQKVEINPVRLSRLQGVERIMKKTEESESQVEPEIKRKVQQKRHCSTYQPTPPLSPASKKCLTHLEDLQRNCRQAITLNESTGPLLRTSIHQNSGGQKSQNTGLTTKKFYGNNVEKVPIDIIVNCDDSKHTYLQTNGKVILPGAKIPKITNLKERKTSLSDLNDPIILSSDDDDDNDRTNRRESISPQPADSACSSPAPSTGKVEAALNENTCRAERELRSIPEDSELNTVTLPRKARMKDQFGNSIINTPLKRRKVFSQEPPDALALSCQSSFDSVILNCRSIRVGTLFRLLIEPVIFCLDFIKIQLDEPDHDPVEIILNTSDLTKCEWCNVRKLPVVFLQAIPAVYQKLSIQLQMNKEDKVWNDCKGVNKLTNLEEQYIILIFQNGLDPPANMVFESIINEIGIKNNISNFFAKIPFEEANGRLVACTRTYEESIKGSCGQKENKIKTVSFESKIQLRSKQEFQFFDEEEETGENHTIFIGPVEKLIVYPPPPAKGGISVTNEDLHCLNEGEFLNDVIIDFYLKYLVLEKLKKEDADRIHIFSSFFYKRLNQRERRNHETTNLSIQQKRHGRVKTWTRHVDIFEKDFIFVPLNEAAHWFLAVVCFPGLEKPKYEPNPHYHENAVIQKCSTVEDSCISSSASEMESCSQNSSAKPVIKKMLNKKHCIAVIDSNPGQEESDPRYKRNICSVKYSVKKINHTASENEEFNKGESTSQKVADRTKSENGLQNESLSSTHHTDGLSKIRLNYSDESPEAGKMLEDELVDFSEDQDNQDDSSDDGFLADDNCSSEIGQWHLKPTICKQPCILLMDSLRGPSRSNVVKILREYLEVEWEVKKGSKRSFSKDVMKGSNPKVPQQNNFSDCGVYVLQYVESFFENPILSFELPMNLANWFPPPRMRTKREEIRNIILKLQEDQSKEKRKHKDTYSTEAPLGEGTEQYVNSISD

HEK293 = assay: inhibitors of LMP1-driven NF-kB reporter, dose response, cell-based, HEK293, luciferase, cherry-pick (AID 588343); type: functional; details: Homo sapiens
[6] = target: T6, Sentrin-specific protease 7 (Homo sapiens, UniProt Q9BQF6); type: functional;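 also: Luminescence-based dose-response confirmation of ultra-high-throughput screening hits, measuring inhibition of SENP7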
T6 sequence (Q9BQF6 whole entry): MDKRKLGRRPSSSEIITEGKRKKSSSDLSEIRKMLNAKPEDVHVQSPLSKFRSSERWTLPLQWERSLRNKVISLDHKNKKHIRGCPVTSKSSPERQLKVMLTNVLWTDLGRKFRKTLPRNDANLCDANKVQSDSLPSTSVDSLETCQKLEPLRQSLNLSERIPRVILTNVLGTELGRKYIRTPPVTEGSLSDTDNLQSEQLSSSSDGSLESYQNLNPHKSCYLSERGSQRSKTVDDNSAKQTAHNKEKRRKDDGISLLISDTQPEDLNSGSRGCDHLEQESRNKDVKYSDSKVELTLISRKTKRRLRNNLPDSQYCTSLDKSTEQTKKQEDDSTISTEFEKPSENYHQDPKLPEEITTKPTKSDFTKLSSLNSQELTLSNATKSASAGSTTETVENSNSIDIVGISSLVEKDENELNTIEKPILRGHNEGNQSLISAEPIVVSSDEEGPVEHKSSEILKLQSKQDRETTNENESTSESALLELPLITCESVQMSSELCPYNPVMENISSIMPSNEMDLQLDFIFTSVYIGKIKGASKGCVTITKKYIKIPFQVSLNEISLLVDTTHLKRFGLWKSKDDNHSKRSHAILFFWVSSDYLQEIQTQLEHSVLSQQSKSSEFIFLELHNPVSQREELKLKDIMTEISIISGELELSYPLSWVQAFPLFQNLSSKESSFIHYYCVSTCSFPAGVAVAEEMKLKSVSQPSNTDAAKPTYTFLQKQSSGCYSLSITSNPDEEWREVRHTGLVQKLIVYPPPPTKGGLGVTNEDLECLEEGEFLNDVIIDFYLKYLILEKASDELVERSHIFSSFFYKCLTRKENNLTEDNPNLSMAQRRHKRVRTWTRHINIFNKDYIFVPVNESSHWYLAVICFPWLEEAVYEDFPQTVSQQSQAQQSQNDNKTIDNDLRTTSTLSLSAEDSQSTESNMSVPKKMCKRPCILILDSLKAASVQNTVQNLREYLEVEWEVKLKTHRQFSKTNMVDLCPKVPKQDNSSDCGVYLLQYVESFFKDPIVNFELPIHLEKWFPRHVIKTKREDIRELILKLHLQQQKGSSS

[7] = target: T7, Sentrin-specific protease 8 (Homo sapiens, UniProt Q96LD8); type: functional;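 also: luminescence read-out of SENP8 inhibition, dose-response confirmation following an ultra-high-throughput screen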
T7 sequence (Q96LD8 whole entry): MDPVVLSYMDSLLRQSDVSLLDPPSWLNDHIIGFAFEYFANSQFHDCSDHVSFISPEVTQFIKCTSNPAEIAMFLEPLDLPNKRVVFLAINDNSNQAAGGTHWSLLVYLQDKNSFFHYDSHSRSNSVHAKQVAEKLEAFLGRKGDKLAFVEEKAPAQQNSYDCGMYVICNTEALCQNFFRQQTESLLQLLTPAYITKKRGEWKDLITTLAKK

[8] = NIH-3T3 fibroblast cytotoxicity, dose response, cytotoxicity control, cell-based, fluorescence, Alamar Blue, secondary assay (AID 2327); type: functional;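 also: NIH-3T3 mouse fibroblasts cultured with fluconazole at 8 µg/mL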

In the case of Clc1ccccc1-c1nn2c(-c3ccncc3)nnc2s1, the AC50 (Escherichia coli) is reported as 23.3 µM (active) and the IC50 [1] is reported as 19.1 µM (active).

For CC(Cc1ccccc1)NCC(=O)Nc1cc(N(C)C)nc2ccccc12 (stereo unspecified), the EC50 [2] was > 260 µM (inactive) and the AC50 [3] was 42.1 µM (active).

With CCCCCc1ccc(-c2ccc(/C=C/C(=O)O)cc2)nc1 the EC50 [4] was 2.03 µM (active), the IC50 (Caspase-3) was 35.4 µM (active) and the IC50 [5] was 11.2 µM (active). For the same molecule, the AC50 (HEK293) was 20.8 µM (active), the IC50 [6] was 6.37 µM (active) and the IC50 [7] was 8.8 µM (active). For the same molecule, the EC50 [8] was > 160 µM (inconclusive).

Reference: ChEMBL document CHEMBL1201862, “PubChem BioAssay data set” (2004)
